The text below walks through data of patent US11433053B2, “LSD1 inhibitor and preparation method and application thereof” (CSPC ZHONGQI PHARMACEUTICAL TECHNOLOGY (SHIJIAZHUANG) CO., …, priority 2017, dated 2022).

In general, IC50 refers to the point on the concentration scale where inhibition reaches its midpoint. A higher IC50 goes with a need for much substance.

One assay concerns the target human LSD1 (Homo sapiens (Human), UniProt O60341). Description: Evaluation of enzyme activity: LSD1 fluorescence coupling enzyme assay (HRP/Amplex Red). It counts as biochemical. To be noted: human LSD1, histone H3(1-21)K4me2 peptide 10 μM, 30 min pre-incubation. The procedure: The purpose of this test is to test the in vitro inhibitory activities of the compounds against LSD1. The enzyme used in this experiment was human LSD1, and the standard substrate was histone H3(1-21)K4me2 peptide (10 μM). HCI-2509 (SP2509) was used as reference compound, and the fluorescence coupling enzyme assay was employed. The production of FAD-dependent H2O2 as a result of demethylase activity of LSD1 was measured by coupling with HRP and Amplex Red. Compounds as well as control compound HCl-2509 were tested in 10-dose IC50 mode with a 3-fold serial dilution in duplicate starting at 10 μm. All compounds were pre-incubated 30 mins with enzyme before added substrate to start reaction. Fluorescence measurement: Ex/Em=535/590 by EnVision.
The test compound's inhibitory activities against LSD11 was classified as: + for IC50≤50 nM; ++ for IC50>50 nM and ≤100 nM; +++ for IC50>100 nM and ≤500 nM, and the results are shown in Table 1.

A further assay deals with H1417 cells. Description: Cell proliferation inhibitory activity on H1417 cells (CellTiter-Glo, 10 days). The format is cell-based, human. As to conditions: Homo sapiens; for IC50: NCI-H1417, 240 h, H1417 cells, 10 days incubation; for Emax: NCI-H1417, H1417 cells, highest percentage inhibition of cell viability, read-out: Maximum inhibition percentage (%). The protocol: Experimental purposes: To test the proliferation inhibitory activities of the test compounds on H1417 cells.
Experimental materials: RPMI 1640 medium, fetal bovine serum, Promega CellTiter-Glo reagent. The H1417 cell line purchased from ATCC. Envision Multi-Label Analyzer (PerkinElmer).
Experimental method: H1417 cells were seeded in a black 384-well plate, 1000 cells per well in […] of cell suspension. The test compounds were diluted 3-fold with Epmotion to the 10th concentration i.e, the compounds were diluted from 10 mmol to […], and a double duplicate well experiment was set. 198 μL medium was added to the middle plate, according to the corresponding position, 2 μL gradient diluted compounds were added to the middle plate. The mixture was mixed evenly and transferred 20 μL per well to the cell plates. The cell plates were incubated in a carbon dioxide incubator for 10 days. 25 μL of Promega CellTiter-Glo reagent per well was added to the cell plate and the mixture was incubated for 10 minutes at room temperature to stabilize the luminescence signal. Readings were performed by PerkinElmer Envision multi-label analyzer.
Data analysis: The original data was converted to the inhibition rate by the equation (Max-Ratio)/(Max-Min)*100%, and the value of IC50 can be obtained by curve fitting with four parameters. (Model 205 in XLFIT5, iDBS)
The growth inhibitory activities of the test compounds on H1417 cells were classified as + for IC50≤100 nM; ++ for IC50>100 nM and ≤500 nM; +++ for IC50>500 nM and ≤1000 nM; the highest percentage inhibition of cell viability was classified as: […]; 90%>B≥70%; 70%>C≥50%.
On the technique in general: ATP-based viability assays read luminescence as a measure of living cells.

SMILES strings stand for the structures. Bounds are passed on as bounds.

Turning to `c1ccc([C@@H]2C[C@H]2NCC2(c3noc([C@@H]4C[C@H]5CNC[C@H]5C4)n3)CC2)cc1` [Example 157], the IC50 against human LSD1 lay within 50 to 100 nM. Also, in the assay on H1417 cells, the IC50 lay within 500 to 1000 nM and the Emax fell in the range of 70 to 90%.
In the same order, the values of `O=C(C1CC1)N1CCC(c2nc(C3(CN[C@H]4CC4c4ccccc4)CC3)no2)CC1` (stereo partly shown) [Example 208] are ≤ 50 nM, 100 to 500 nM and 70 to 90%.
In the same order, the values of `O=C(O)[C@H](Cc1c[nH]c2ccccc12)NCC1(CN[C@@H]2C[C@H]2c2ccccc2)CC1` [Example 227] are 100 to 500 nM, ≤ 100 nM and 50 to 70%.
Taken in the same sequence, the figures for `N[C@@H](CCc1nc(C2(CN[C@@H]3C[C@H]3c3ccccc3)CC2)no1)C(=O)O` [Example 153] were 100 to 500 nM, 500 to 1000 nM and 90 to 100%.
As to `O=C(N[C@H]1CC[C@@H](c2nc(C3(CN[C@@H]4C[C@H]4c4ccccc4)CC3)no2)CC1)C1CC1` [Example 117], at human LSD1, the IC50 is ≤ 50 nM. In addition, in the assay with H1417 cells, the concentration for half-maximal inhibition (IC50) is 100 to 500 nM and the Emax lay within 70 to 90%.
In the case of `O=C(O)[C@H]1CC[C@@H](c2nc(C3(CN[C@H]4CC4c4ccccc4)CC3)no2)C1` (stereo partly shown) [Example 174], the half-maximal inhibitory concentration (IC50) at human LSD1 fell in the range of 100 to 500 nM. Also, in the assay with H1417 cells, the IC50 was 500 to 1000 nM and the Emax lay in the range of 50 to 70%.
In the same order, the values of `Clc1ccc(-c2noc(C3(CN[C@H]4CC4c4ccccc4)CC3)n2)cc1` (stereo partly shown) [Example 69] are ≤ 50 nM, 500 to 1000 nM and 50 to 70%.
In the same order, the values of `NCC1(CN[C@H]2CC2c2ccccc2)CCC1` (stereo partly shown) [Example 9] are ≤ 50 nM, ≤ 100 nM and 70 to 90%.
In the case of `N[C@H]1CC[C@@H](c2nc(C3(CN[C@@H]4C[C@H]4c4ccccc4)CC3)no2)C1` [Example 147], the IC50 against human LSD1 was ≤ 50 nM; in the assay with H1417 cells, 500 to 1000 nM. Moreover, in the assay with H1417 cells, the Emax fell in the range of 90 to 100%.
Taken in the same sequence, the figures for `O=C(N1CCC(c2nc(C3(CN[C@H]4CC4c4ccccc4)CC3)no2)CC1)C(F)(F)F` (stereo partly shown) [Example 226] were ≤ 50 nM, ≤ 100 nM and 90 to 100%.
As to `NC(=O)c1ccc(-c2nc(C3(CN[C@H]4CC4c4ccccc4)CC3)no2)cc1` (stereo partly shown) [Example 182], at human LSD1, the IC50 was ≤ 50 nM. Moreover, in the assay on H1417 cells, the IC50 is 500 to 1000 nM and the Emax was in the range of 90 to 100%.
With `CN1CCN(c2nc(C3(CN[C@@H]4C[C@H]4c4ccccc4)CC3)no2)CC1` [Example 247], the 50% inhibitory concentration (IC50) on human LSD1 is ≤ 50 nM. Further, in the assay on H1417 cells, the IC50 lay in the range of 500 to 1000 nM and the Emax fell in the range of 90 to 100%.
In the same order, the values of `c1ccc(C2C[C@@H]2NCC2(c3noc(-c4ccc5scnc5c4)n3)CCC2)cc1` (stereo partly shown) [Example 127] are ≤ 50 nM, 100 to 500 nM and 50 to 70%.
In the same order, the values of `c1ccc([C@@H]2C[C@H]2NCC2(c3noc(N4CCNCC4)n3)CC2)cc1` [Example 246] are ≤ 50 nM, 500 to 1000 nM and 90 to 100%.
In the same order, the values of `N[C@H]1CC[C@H](Cc2nc(C3(CN[C@H]4CC4c4ccccc4)CC3)no2)CC1` (stereo partly shown) [Example 225] are ≤ 50 nM, 100 to 500 nM and 90 to 100%.
Consider `N#Cc1ccc2c(c1)CN(CC1(CN[C@H]3CC3c3ccccc3)CC1)C2` (stereo partly shown) [Example 100], for which the 50% inhibitory concentration (IC50) at human LSD1 was ≤ 50 nM. Also, in the assay with H1417 cells, the 50% inhibitory concentration (IC50) lay within 100 to 500 nM and the Emax lay within 50 to 70%.
In turn, `N[C@@H]1CCC[C@@H](c2nc(C3(CN[C@@H]4C[C@H]4c4ccccc4)CC3)no2)C1` [Example 214] showed an IC50 on human LSD1 of 50 to 100 nM. Also, in the assay on H1417 cells, the IC50 was 100 to 500 nM and the Emax was in the range of 70 to 90%.
Consider `FC(F)Oc1ccc(-c2nc(C3(CN[C@H]4CC4c4ccccc4)CCC3)no2)cc1` (stereo partly shown) [Example 89], for which the IC50 against human LSD1 was ≤ 50 nM. Besides, in the assay with H1417 cells, the IC50 was 100 to 500 nM and the Emax was 50 to 70%.
In the same order, the values of `C[C@@H]1CN(CC2(CN[C@H]3CC3c3ccccc3)CC2)C[C@H](C)N1` (stereo partly shown) [Example 216] are 100 to 500 nM, ≤ 100 nM and 90 to 100%.
Taken in the same sequence, the figures for `NC1(CN[C@H]2CC2c2ccccc2)CC1` (stereo partly shown) [Example 199] were 50 to 100 nM, 500 to 1000 nM and 70 to 90%.
`c1ccc(C2C[C@@H]2NCC2(CN3CC4CNCC4C3)CC2)cc1` (stereo partly shown) [Example 207]: the half-maximal inhibitory concentration (IC50) at human LSD1 was ≤ 50 nM. Further, in the assay on H1417 cells, the half-maximal inhibitory concentration (IC50) fell in the range of 500 to 1000 nM and the Emax is 50 to 70%.
In the same order, the values of `c1ccc(C2C[C@@H]2NCC2(c3noc(CC4CCNCC4)n3)CC2)cc1` (stereo partly shown) [Example 163] are 100 to 500 nM, 100 to 500 nM and 70 to 90%.
For `O=C(O)c1ccc(CN2CCC3(CC2)CC(c2nc(C4(CN[C@H]5CC5c5ccccc5)CC4)no2)C3)cc1` (stereo partly shown) [Example 206], the figures for the IC50 against human LSD1 and with H1417 cells were 100 to 500 nM and 500 to 1000 nM, respectively. Further, in the assay with H1417 cells, the Emax is 50 to 70%.
For the compound `N[C@@H]1CCC[C@H](c2nc(C3(CN[C@@H]4C[C@H]4c4ccccc4)CC3)no2)C1` [Example 220], the half-maximal inhibitory concentration (IC50) on human LSD1 was in the range of 50 to 100 nM. Also, in the assay with H1417 cells, the IC50 was in the range of 100 to 500 nM and the Emax is 70 to 90%.
Taken in the same sequence, the figures for `FC(F)(F)c1ccc(-c2nc(C3(CN[C@H]4CC4c4ccccc4)CCC3)no2)cc1` (stereo partly shown) [Example 132] were ≤ 50 nM, 100 to 500 nM and 50 to 70%.
Taken in the same sequence, the figures for `NCC1(CN[C@H]2CC2c2ccccc2)CC1` (stereo partly shown) [Example 4] were ≤ 50 nM, ≤ 100 nM and 50 to 70%.
As to `c1ccc([C@@H]2C[C@H]2NCC2(c3noc(C4CCC5(CC4)CNC5)n3)CC2)cc1` [Example 158], the concentration for half-maximal inhibition (IC50) against human LSD1 is ≤ 50 nM. Also, in the assay on H1417 cells, the IC50 was in the range of 500 to 1000 nM and the Emax fell in the range of 90 to 100%.
Taken in the same sequence, the figures for `COc1ccc(-c2nc(C3(CN[C@H]4CC4c4ccccc4)CCC3)no2)cn1` (stereo partly shown) [Example 129] were ≤ 50 nM, 100 to 500 nM and 50 to 70%.
Taken in the same sequence, the figures for `c1ccc(C2C[C@@H]2NCC2(CN[C@@H]3CC3c3ccccc3)CC2)cc1` (stereo partly shown) [Example 198] were ≤ 50 nM, 100 to 500 nM and 50 to 70%.
In the same order, the values of `N#Cc1ccc(-c2nc(C3(CN[C@H]4CC4c4ccccc4)CCC3)no2)cc1` (stereo partly shown) [Example 192] are ≤ 50 nM, 100 to 500 nM and 50 to 70%.
In turn, `CN(C)[C@H]1CC[C@H](c2nc(C3(CN[C@@H]4C[C@H]4c4ccccc4)CC3)no2)CC1` [Example 115] displayed a 50% inhibitory concentration (IC50) at human LSD1 of 100 to 500 nM.
In turn, `O=C(O)c1ccc(-c2nc(C3(CN[C@H]4CC4c4ccccc4)CC3)no2)cn1` (stereo partly shown) [Example 102] showed an IC50 at human LSD1 of 100 to 500 nM.
On to `c1ccc(C2C[C@@H]2NCC2(c3noc4ccccc34)CCC2)cc1` (stereo partly shown) [Example 72], for which the half-maximal inhibitory concentration (IC50) against human LSD1 is ≤ 50 nM.
Regarding `O=C(O)c1ccc(CN2CCC(c3nc(C4(CN[C@H]5C[C@@H]5c5ccccc5)CC4)no3)C2)cc1` (stereo partly shown) [Example 215], the IC50 against human LSD1 was 100 to 500 nM.
Consider `CCn1ncnc1CNCC1(CN[C@H]2C[C@@H]2c2ccccc2)CC1` [Example 14], for which, on human LSD1, the IC50 lay within 100 to 500 nM.
On human LSD1, `CCN(CC)CC1(CN[C@H]2CC2c2ccccc2)CC1` (stereo partly shown) [Example 7] registered a half-inhibitory concentration (IC50) of 100 to 500 nM.
The compound `O=C(O)c1cccc(-c2nc(C3(CN[C@H]4CC4c4ccccc4)CCC3)no2)c1` (stereo partly shown) [Example 135] yielded an IC50 against human LSD1 of 100 to 500 nM.
On the same count and under the same terms, in the case of `N#Cc1cccc(-c2nc(C3(CN[C@H]4CC4c4ccccc4)CCC3)no2)c1` (stereo partly shown) [Example 92] it was ≤ 50 nM; in that of `N[C@H]1CC[C@@H](c2nc(C3(CN[C@@H]4C[C@H]4c4ccccc4)CCC3)no2)CC1` [Example 209], ≤ 50 nM.
Turning to `O=C(O)c1ccc(-c2nc(C3(CN[C@H]4CC4c4ccccc4)CC3)no2)cc1` (stereo partly shown) [Example 181], the IC50 on human LSD1 is ≤ 50 nM.
In the case of `FC(F)(F)c1cc(-c2nc(C3(CN[C@H]4CC4c4ccccc4)CCC3)no2)ccn1` (stereo partly shown) [Example 131], the concentration for half-maximal inhibition (IC50) at human LSD1 is ≤ 50 nM.
The same measure, in the same setting: next, `O=C(O)C1CCN(c2nc(C3(CN[C@@H]4C[C@H]4c4ccccc4)CC3)no2)CC1` [Example 253]: 100 to 500 nM; `COc1ccc2nc(-c3nc(C4(CN[C@H]5CC5c5ccccc5)CCC4)no3)sc2c1` (stereo partly shown) [Example 94]: ≤ 50 nM.
